Results on 20 compounds are retold here after the SangsterLogP compilation.

The nature of the data set: method code SF-GLC, from DOI: 10.1016/0048-3575(78)90090-1.
In general, logP refers to the decadic logarithm of the partition coefficient of the neutral form, usually between octanol and water. Lower therefore signals a more hydrophilic compound. The compound `CC1C(Cl)C(Cl)C(Cl)C(Cl)C1Cl` (stereo not given) registered a logP of 4.04.

With `ClC1C(Cl)C(Cl)C(I)C(Cl)C1Cl` (stereo not given), the log partition coefficient (logP) was 3.96.

`ClC1CC(Cl)C(Cl)C(Cl)C1Cl` (stereo not given) gave a logP of 3.53.

`COC1C(Cl)C(Cl)C(OC)C(Cl)C1Cl` (stereo not given) had a logP of 3.15.

In turn, `COC1C(Cl)C(Cl)C(Cl)C(Cl)C1Cl` (stereo not given) came in with a log partition coefficient (logP) of 3.14.

For the compound `OCC1C(Cl)C(Cl)C(Cl)C(Cl)C1Cl` (stereo not given), the lipophilicity (logP) is 2.94.

Regarding `FC(F)(F)COC1C(Cl)C(Cl)C(Cl)C(Cl)C1Cl` (stereo not given), the logP was 4.06.

`CC1C(Cl)C(Cl)C(C)C(Cl)C1Cl` (stereo not given) gave a logP of 4.4.

With `COC1C(Cl)C(Cl)C(Cl)C(OC)C1OC` (stereo not given), the logP was 1.87.

Take `ClC1C(Cl)C(Cl)C(Br)C(Br)C1Cl` (stereo not given): the logP came out at 3.88.

Compound `OC1C(Cl)C(Cl)C(Cl)C(Cl)C1Cl` (stereo not given) displayed a log partition coefficient (logP) of 2.54.

In the case of `CC(=O)Oc1c(Cl)c(Cl)c(Cl)c(Cl)c1Cl`, the lipophilicity (logP) turned out to be 3.4.

For `ClC1C(Cl)C(Cl)C(Br)C(Cl)C1Cl` (stereo not given), the logP was determined as 3.74.

The compound `ClC1C(Cl)C(Br)C(Cl)C(Cl)C1Br` (stereo not given) returned a logP of 3.98.

`FC1C(Cl)C(Cl)C(Cl)C(Cl)C1Br` (stereo not given) showed a logP of 3.28.

For the compound `ClC1CC(Cl)C(Cl)CC1Cl` (stereo not given), the logP amounted to 2.82.

`FC1C(Cl)C(Cl)C(Cl)C(Cl)C1Cl` (stereo not given) returned a logP of 3.19.

With `COC1C(Cl)C(Cl)C(Cl)C(Cl)C1OC` (stereo not given), the lipophilicity (logP) worked out at 2.55.

The compound `CCOC1C(Cl)C(Cl)C(Cl)C(Cl)C1Cl` (stereo not given) returned a logP of 3.69.

Consider `COC1CC(Cl)C(Cl)C(Cl)C1Cl` (stereo not given), for which the logP was 2.99.
